Assay results: PubChem BioAssay (NCI)
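The compound was tested at five concentrations on cells cultured in 96-well plates, with a 48-hour exposure period. Abbreviation: GI50, concentration required for 50% inhibition of growth. TGI: concentration producing complete growth inhibition.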

Columns and labels:
Experiment in all cases: NCI-60 cell line screen, 48 h
[1] = test system: EKVX NSCLC
[2] = test system: HCC-2998 colon
[3] = test system: HCT-15 colon
[4] = test system: LOX IMVI melanoma
[5] = test system: OVCAR-5 ovarian
[6] = test system: SK-MEL-5 melanoma
[7] = test system: COLO 205 colon
[8] = test system: HOP-92 NSCLC
[9] = test system: SN12C renal
[10] = test system: BT-549 breast

O=C1OC(c2ccccc2Br)=N/C1=C/c1ccccc1
TGI [1]: > 100 µM
TGI [2]: 39.4 µM
TGI [3]: > 100 µM
TGI [4]: 38.8 µM
TGI [5]: > 100 µM
TGI [6]: > 100 µM

O=c1c2cc([N+](=O)[O-])ccc2n2n1CCCCC2
TGI [7]: > 100 µM
TGI [1]: > 100 µM
TGI [2]: > 100 µM
TGI [3]: > 100 µM
TGI [8]: > 100 µM
TGI [4]: > 100 µM
TGI [5]: > 100 µM
TGI [6]: > 100 µM
TGI [9]: > 100 µM

CC#CC#C/C=C1\C=CC2(OC=CC2O)O1 (centres undefined)
TGI [7]: 6.83 µM
TGI [1]: > 16.7 µM
TGI [2]: > 23.3 µM
TGI [3]: > 23.3 µM
TGI [8]: > 23.3 µM
TGI [4]: > 23.3 µM
TGI [5]: 11.8 µM
TGI [6]: > 23.3 µM
TGI [9]: > 23.3 µM

CN(C)CC(C)(C)CN1c2ccccc2Sc2ccccc21
TGI [10]: 27.6 µM
TGI [7]: 24.9 µM
TGI [1]: 28.8 µM
TGI [3]: > 100 µM
TGI [8]: 24.1 µM
TGI [4]: 26.4 µM
TGI [5]: 29.9 µM
TGI [6]: 29.4 µM
TGI [9]: 25.9 µM

CCCCCCCCCCCCCCCCCCOc1ccccc1COP(=O)(O)OOCC[N+](C)(C)C
GI50 [10]: 1.32 µM
TGI [10]: 4.26 µM
GI50 [7]: 1.04 µM
TGI [7]: 2.57 µM
GI50 [1]: 1.77 µM
TGI [1]: 10.3 µM
GI50 [2]: 0.787 µM
TGI [2]: 1.6 µM
GI50 [3]: 1.64 µM
TGI [3]: 7.87 µM
GI50 [5]: 1.51 µM
TGI [5]: 6.86 µM
GI50 [6]: 0.813 µM
TGI [6]: 1.5 µM
GI50 [9]: 1.1 µM
TGI [9]: 3.17 µM

O=C(O)c1ccc(Nc2cnc3cc(C(F)(F)F)ccc3n2)cc1
TGI [7]: > 100 µM
TGI [1]: > 100 µM
TGI [2]: 80.7 µM
TGI [3]: 83.5 µM
TGI [4]: > 100 µM
TGI [5]: > 100 µM
TGI [6]: > 100 µM
TGI [9]: > 100 µM

CC(=O)OCC1OC(O[C@H]2C=C[C@@H](C(=O)OCc3ccccc3)n3c(=O)n(-c4ccccc4)c(=O)n32)C(OC(C)=O)C(OC(C)=O)C1OC(C)=O (some centres undefined)
TGI [10]: 3.29 µM
TGI [7]: 8.75 µM
TGI [1]: 3.9 µM
TGI [2]: 3.22 µM
TGI [3]: 2.44 µM
TGI [8]: 3.9 µM
TGI [5]: 4.75 µM
TGI [6]: 5.66 µM
TGI [9]: 3.88 µM

CCCC(C(=O)OC)C1N=C(NC#N)N(Cc2ccccc2)C1=O (centres undefined)
TGI [7]: > 100 µM
TGI [1]: > 100 µM
TGI [2]: > 100 µM
TGI [3]: > 100 µM
TGI [4]: > 100 µM
TGI [5]: > 100 µM
TGI [6]: > 100 µM
TGI [9]: > 100 µM

COC(=O)C1=CCC2c3[nH]c4ccccc4c3CCN2C1 (centres undefined)
TGI [7]: > 354 µM
TGI [1]: > 354 µM
TGI [2]: > 354 µM
TGI [3]: > 354 µM
TGI [8]: > 354 µM
TGI [4]: > 354 µM
TGI [6]: > 354 µM
TGI [9]: > 354 µM

CC(C)(C)CI
TGI [7]: 47 µM
TGI [1]: > 100 µM
TGI [2]: 37.2 µM
TGI [3]: > 100 µM
TGI [8]: 61.4 µM
TGI [4]: 33.4 µM
TGI [5]: > 100 µM
TGI [6]: 30.9 µM
TGI [9]: 32.4 µM

CC(C)CC1N=C(OCc2ccccc2)OC1=O (centres undefined)
TGI [10]: > 100 µM
TGI [1]: > 100 µM
TGI [3]: > 100 µM
TGI [8]: > 100 µM
TGI [4]: > 100 µM
TGI [5]: > 100 µM
TGI [6]: > 100 µM
TGI [9]: > 100 µM

COc1ccc(C=O)cc1OS(=O)(=O)C(F)(F)C(F)(F)C(F)(F)C(F)(F)F
TGI [10]: > 100 µM
TGI [7]: 62.4 µM
TGI [1]: > 82.6 µM
TGI [3]: > 100 µM
TGI [8]: 58.6 µM
TGI [4]: 41.9 µM
TGI [5]: > 100 µM
TGI [6]: 30.8 µM
TGI [9]: 97.5 µM

[O-][N+]1=C2CCC/C(=N/O)C2(O)C2CCCCC21N1CCOCC1 (centres undefined)
TGI [10]: > 100 µM
TGI [7]: > 100 µM
TGI [1]: > 100 µM
TGI [2]: > 100 µM
TGI [3]: > 100 µM
TGI [4]: > 100 µM
TGI [5]: > 100 µM
TGI [6]: > 100 µM
TGI [9]: > 100 µM

CC(C)c1c(O[Si](C(C)C)(C(C)C)C(C)C)cc2c(c1O)CC[C@H]1C(C)(C)CCC[C@]21C
TGI [7]: > 100 µM
TGI [1]: > 100 µM
TGI [3]: > 100 µM
TGI [8]: > 100 µM
TGI [4]: > 100 µM
TGI [5]: > 100 µM
TGI [6]: > 100 µM
TGI [9]: > 100 µM

CN1CCc2c(sc3ncn(Nc4ccc(F)cc4)c(=N)c23)C1
TGI [10]: > 100 µM
TGI [1]: > 100 µM
TGI [3]: > 100 µM
TGI [8]: > 100 µM
TGI [4]: > 100 µM
TGI [5]: > 100 µM
TGI [6]: > 100 µM
TGI [9]: > 100 µM

O=C1c2ccccc2C(=O)N1NC1=NCCN1
TGI [10]: > 100 µM
TGI [7]: > 100 µM
TGI [1]: > 100 µM
TGI [2]: > 100 µM
TGI [3]: > 100 µM
TGI [4]: > 100 µM
TGI [5]: > 100 µM
TGI [6]: > 100 µM
TGI [9]: > 100 µM

O=C(CCCn1ccnc1[N+](=O)[O-])NCCn1cnc([N+](=O)[O-])n1
TGI [10]: > 100 µM
TGI [7]: > 100 µM
TGI [3]: > 100 µM
TGI [8]: > 100 µM
TGI [4]: > 100 µM
TGI [5]: > 100 µM
TGI [6]: > 100 µM
TGI [9]: > 100 µM

NC1NCCC(=O)N1CCc1c[nH]c2ccccc12 (centres undefined)
TGI [7]: 32.5 µM
TGI [1]: 75.5 µM
TGI [2]: 35.2 µM
TGI [3]: 65 µM
TGI [8]: 69.5 µM
TGI [4]: 30.2 µM
TGI [5]: 69.3 µM
TGI [6]: 30.8 µM
TGI [9]: 67.6 µM

COC(=O)Cc1c(C2C(CC(=O)OC)c3ccccc3N2C2OC(CO)C(O)C(O)C2O)[nH]c2ccccc12 (centres undefined)
TGI [10]: > 100 µM
TGI [7]: > 100 µM
TGI [1]: > 100 µM
TGI [2]: > 100 µM
TGI [3]: > 100 µM
TGI [8]: > 100 µM
TGI [5]: > 100 µM
TGI [6]: > 100 µM
TGI [9]: > 100 µM

O=C1CN(c2ccccc2)C(=O)CN1NCNN1CC(=O)N(c2ccccc2)CC1=O
TGI [10]: > 100 µM
TGI [7]: > 100 µM
TGI [1]: > 100 µM
TGI [2]: > 100 µM
TGI [3]: > 100 µM
TGI [8]: > 100 µM
TGI [5]: > 100 µM
TGI [6]: > 100 µM
TGI [9]: > 100 µM

COC(=O)[C@H](Cc1ccccc1)NC(=O)N(CCNC(=O)OC(C)(C)C)c1ccccc1
TGI [10]: > 100 µM
TGI [7]: > 100 µM
TGI [1]: > 100 µM
TGI [2]: > 100 µM
TGI [3]: > 100 µM
TGI [4]: > 100 µM
TGI [5]: > 100 µM
TGI [6]: > 100 µM
TGI [9]: > 100 µM

NC(CSCSCC(N)C(=O)O)C(=O)O (centres undefined)
TGI [7]: > 225 µM
TGI [1]: > 225 µM
TGI [2]: > 225 µM
TGI [3]: > 225 µM
TGI [8]: > 225 µM
TGI [4]: > 225 µM
TGI [5]: > 225 µM
TGI [6]: > 225 µM
TGI [9]: > 225 µM

COc1cc(OC)c(/C=N\Nc2nc3ccccc3c(=O)n2-c2ccccc2)c(OC)c1
TGI [7]: > 100 µM
TGI [1]: 63.7 µM
TGI [2]: > 100 µM
TGI [3]: > 100 µM
TGI [8]: 64.3 µM
TGI [4]: 69.6 µM
TGI [5]: > 100 µM
TGI [6]: > 79.7 µM
TGI [9]: 98.8 µM
